One data set relates to TNF-α mRNA. As to the kind of experiment: TNF-α knockdown in human monocytes (branch DNA).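 Also: LPS-activated human CD14+ monocytes, TNF-α mRNA read by branched DNA assay and normalized to cypB mRNA, knockdown compared with random-sequence Qneg siRNA as negative control.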
A further data set relates to TNF-α. As to the kind of experiment: mouse LPS response, TNF-α in blood. As to conditions: 2 mg/kg siRNA, with or without PN73; vs negative controls. Format: in vivo. The procedure: Normal [mouse type] mice were treated with various concentrations of LPS by intraperitoneal or intravenous injections. LPS responsiveness was determined by measuring levels of TNF-α in blood that was sampled various times following the LPS injection. A linear range of TNF-α induction was found between 10 ng and 100 ng for LPS injection by IP administration and up to 25 ng by IV injection. The average time for maximal TNF-α induction is 70 minutes following LPS injection.
The LPS induction was performed 24 hr following the last siRNA injection, 0.2 ug LPS and blood was collected at 90 minutes following LPS injection.
Three studies of 30 animals each dosing by the following schedules: 4 consecutive days; 8 consecutive days; and 11 consecutive days. LPS induction was performed at 24 hr post siRNA injection, 25 ng LPS (IP). Blood was drawn 70 minutes following LPS injection. […] Results from measurements and 8 and 11 days gave variable results owing to technical problems partly arising from repeated tail injections.

The subject of data set [1] is human TNF-α transgenic mice. Description: RA paw score in human TNF-α transgenic mice.
Procedure: For human TNF-α animal disease models, two transgenic models were used. The tg197 mice were acquired from Pasteur Hellenic Institute (Athens, Greece), and the B6.SJL-Tg(TNF) N21 mice were purchased from Taconic, Inc. (Germantown, N.Y.). The genotypes of both human TNF-α transgenic mouse models were performed by suppliers. […] All treatments were by tail vein injection twice a week. […] A similar dose regimen was used for B6.SJL-Tg(TNF) N21 mice. Clinical scores were based on a previously described scoring system (2, 3) as follows: 0 (normal), 1 (edema or distortion of paw or ankle joints), 2 (distortion of paw and ankle joints), or 3 (ankylosis of wrist or ankle joints). The sum of all four paws was scored twice a week with a maximum score of 12 per mouse.
For Hellenic transgenic mice, RA scores were determined (blinded to treatment) using the following criteria: 0, normal; 1, edema or distortion of paw or ankle joints; 2 distortion of paw and ankle joints; 3, ankylosis of wrist or ankle joints.
Human NF-α expressing mice were purchase from the Hellenic Pasture Institute, Greece) at 5 weeks old. […] During the injection periods, plasma samples were collected for ELISA testing (R&D Systems, Cat#SSTA00C), and paw scores were taken twice a week as an accepted index of RA disease progression and therapeutic efficacy (Table 19).
Due to the difference in the starting point (some animals present with scores at earlier points), the scores have been adjusted to 0 for all animals in the experiments. Each paw is given a score between 0 and 3, with the highest score of 12, according to the following scoring index. • 0: Normal • 1: edema or distortion of paw or ankle joints • 2: distortion of paw and ankle joints • 3: ankylosis of wrist or ankle joints.
A further data set relates to TNF-α protein. Description: TNF-α protein ELISA in human monocytes. The class given is cell-based. As to conditions: siRNA screen with Lipofectamine 2000, LPS-activated monocytes.
A further data set has as its system IL-1β mRNA. As to the kind of experiment: interferon responsiveness, IL-1β mRNA (bDNA). The class given is cell-based. As to conditions: siRNA complexed with lipofectamine; 100 nM or 200 nM for TNF-α9. The procedure:
(§1) Interferon responsiveness was assayed by ELISA (protein) and bDNA (mRNA levels).

Data set [2] concerns interferon response markers (IL-1β, INF-α, IL-6, IL-8, IL-12, MIP-1α, IFN-γ, TNF-α). Description: interferon responsiveness, marker protein ELISA. Format: cell-based. The procedure: as §1
In the next data set the test system is human TNF-α. Description: plasma human TNF-α by ELISA in human TNF-α transgenic mice. As to conditions: average of the mice. Format: in vivo, mouse. The procedure: For determination of TNF-α level, For the analysis of experiments involving transgenic mice, plasma samples were separated from whole blood collected by orbital bleeding. Plasma levels of hTNF-α were determined by ELISA at a 1:2 dilution according to the manufacturer's instructions (R&D systems, Minneapolis, Minn.).
For Taconic mice, TNF-α levels in plasma were determined by ELISA (R&D systems, Minneapolis, Minn.) and treatment schedules were same as Hellenic transgenic hTNF-αtransgenic mice.

Data set [3] has as its system 9L/LacZ cells. As to the kind of experiment: beta-galactosidase knockdown assay of siRNA transfection efficiency. The class given is cell-based, rat. As to conditions: Histone H2B plus siRNA.
Procedure: For H3, H4 and H2b, a series of experiments was performed to complex these polynucleotide delivery-enhancing polypeptides with siRNA in different ratios. Generally this was initiated with a 1:0.01 to 1:50 of siRNA/histone ratio. To each well in a 96-well microtiter plate, 40 pm siRNA was added. Each well contained beta-gal cells at 50% confluency.
Transfections were performed with either regular siRNA or siRNA complexed with one of the above-identified histone proteins on 9L/beta-gal cells. The siRNA was designed to specifically knock down beta-galactosidase mRNA, and activities are expressed as percentage of beta-gal activities from control (control cells were transfected using lipofectamine without the polynucleotide delivery-enhancing polypeptide).
For beta-galactosidase assays, 9L/LacZ cells, a cell line constitutively expressing beta-galactosidase, were used. 9L/LacZ cells are rat gliosarcoma fibroblast cells that constitutively express LacZ and were obtained from ATCC (#CRL-2200). […]
The transfection efficiency inversely correlates with the amount of beta-galactosidase activity measured from the cell lysate. Upon transfection, a measured decrease in beta-galactosidase activity indicates a successful transfection. Thus, in the absence of transfection, the measured beta-galactosidase activity is 100% and the transfection efficiency is 0%. […]
In data set [4] the test system is 9L/LacZ cells. As to the kind of experiment: siRNA uptake by flow cytometry in 9L/LacZ cells. As to conditions: peptide/siRNA complex. The class given is cell-based, rat.
Procedure: (§2) Cells were plated the day before so that they were ˜50-80% confluent at time of transfection. For complexes, siRNA and peptide were diluted in Opti-MEM® media (Invitrogen), then mixed and allowed to complex 5-10 minutes before adding to cells washed with PBS. Final concentration of siRNA was 500 nM at each peptide concentration (2-50 μM). The conjugate, also diluted in Opti-MEM® media, was added to cells at final concentrations ranging from 62.5 nM to 500 nM. At 500 nM concentration, we also combined with 20% FBS just before adding to washed cells. Cells were transfected for 3 hours at 37° C., 5% CO2. Cells were washed with PBS, treated with trypsin and then analyzed by flow cytometry. siRNA uptake was measured by intensity of Cy5 fluorescence and cellular viability assessed by addition of propidium iodide.
Uptake was measured using 9L/lacZ cells transfected as described in Example 2. Cells were washed with PBS, treated with trypsin and then analyzed by flow cytometry. siRNA uptake was measured by intensity of FAM fluorescence and cellular viability assessed by addition of propidium iodide.
For data set [5], the system named is mouse tail fibroblast (MTF) cells. Format: cell-based. As to conditions: peptide/siRNA complex.
Procedure: as §2
The materials and methods used for the experiments performed in 9L/LacZ cells and mouse fibroblast cells are generally the same as described above, except that for the murine experiments, 9L/LacZ cells were replaced with mouse tail fibroblasts.

This is an account of results in patent publication US20100113332A1, “METHOD OF TREATING AN INFLAMMATORY DISEASE BY DOUBLE STRANDED RIBONUCLEIC ACID” (NASTECH PHARMACEUTICAL COMPANY INC., priority 2004, published 2010).

Source text for TNF-α mRNA: For mRNA measurement, branch DNA technology from Genospectra (CA) was used according to manufacturer's specification. Human monocytes (CD14+) treated with LPS induce TNF-α-specific mRNA within approximately 2 hrs, followed by peak levels of TNF-α protein 2 hrs later. siRNAs were screened for knockdown activity by transfecting monocytes with siRNA candidate sequences using Lipofectamine 2000, treating infected cells with LPS, and measuring TNF-α mRNA levels approximately 16 hrs later.
To quantitate mRNA level in the cells, both house keeping gene (cypB) and target gene (TNF-α) mRNA were measured, and the reading for TNF-α was normalized with cypB to obtain relative luminescence unit.
Qneg represents a random siRNA sequence and functions as the negative control in these experiments.
Procedure for TNF-α protein: Human monocytes (CD14+) treated with LPS induce TNF-α-specific mRNA within approximately 2 hrs, followed by peak levels of TNF-α protein 2 hrs later. siRNAs were screened for knockdown activity by transfecting monocytes with siRNA candidate sequences using Lipofectamine 2000, treating infected cells with LPS, and measuring TNF-α mRNA levels approximately 16 hrs later.
To quantitate mRNA level in the cells, both house keeping gene (cypB) and target gene (TNF-α) mRNA were measured, and the reading for TNF-α was normalized with cypB to obtain relative luminescence unit. To quantify protein level, the TNF-α ELISA from BD Bioscience was used according to manufacturer's specification.

As to “AAUCCUCAGCCUCUUCUCCUU (siRNA; chemistry not fully specified) [LC13]”, the “TNF-α knockdown activity (FIG. 6-C)” value in the data set on TNF-α mRNA (absence of PN73, 0-2.5 nM) is “little knockdown activity”. For the same substance, the “KD (%) TNF-α” value in the data set with TNF-α mRNA (siRNA 4 nM complexed with 1.6 uM PN73) was 48.29%; in the data set with TNF-α mRNA (siRNA 4 nM complexed with 1.6 uM PN509), 25.04%; with TNF-α mRNA (siRNA 20 nM complexed with 0.5 uM PN250) it was 20.65%; in the data set on TNF-α mRNA (siRNA 20 nM complexed with 0.75 uM PN250), 18.04%; with TNF-α mRNA (siRNA 20 nM complexed with 1 uM PN250), 31.35%. The “decrease in TNF-α gene expression relative to Qneg control (FIG. 6-B)” value with TNF-α mRNA (siRNA complexed with PN73 1:1, 0-2.5 nM) is listed as ~15%. The “circulating TNF-α resulting from LPS induction” value in the data set with TNF-α was “lowered amounts of circulating TNF-α”. Besides, in data set [1] (group TNF #4), the “Relative effect of siRNA, paw score” value is listed as “Overall low paw score”.
“GCGUGGAGCUGAGAGAUAA (chemistry not given here) [TNF-α-1]”: the “TNF-α mRNA knockdown” value with TNF-α mRNA (siRNA screen with Lipofectamine 2000, LPS-activated monocytes) amounted to 50%. Further, the “reduction in TNF-α protein level” value in the data set on TNF-α protein turned out to be 75%.
With “UAGCCCAUGUUGUAGCAAA (siRNA; delivered with peptide PN73, further chemistry not given here) [TNF-α9]”, in the data set with IL-1β mRNA, the “IL-1β mRNA levels” value was “significant increase”. In addition, the “Relative effect of siRNA, effectiveness relative to Ramicade by week 8” value in [1] (group TNF #7) is “LC20 and TNF-α9 are more”. For the same substance, the “RA progression by paw score at week 8 (FIG. 4)” value in data set [1] (siRNA delivered with PN73) was “delayed RA progression”. In addition, in data set [2] (Lipofectamine transfection), the “Relative protein expression level of IFN-γ” value is listed as “Background”, the “Relative protein expression level of IL-12” value is on record as “Background” and the “Relative protein expression level of INF-α” value was “Background”. The “IL-1β, IL-6 and MIP-1α protein expression levels” value in [2] (transfection with lipofectamine) was “increase”.
infliximab [Ramicade]: the “Quantity of TNF-α protein in blood plasma by ELISA” value turned out to be 102.24 pg/mL in the data set with human TNF-α (age 7 weeks), 39.27 pg/mL in the data set on human TNF-α (age 8 weeks) and 25.80 pg/mL in the data set with human TNF-α (age 9 weeks). Further, in data set [1] (twice weekly from age 6 weeks, effect beginning at age 7 weeks), the “RA score (paw and joint inflammation)” value is reported as “RA score stabilization”.
For the substance Histone H2B, in the data set on 9L/LacZ cells [3], the measured beta-galactosidase activity was 37.97%.
For “NH2-LLETLLKPFQCRICMRNFSTRQARRNHRRRHRR-amide (H-LLETLLKPFQCRICMRNFSTRQARRNHRRRHRR-NH2; cysteine pairing not given here) [PN202]”, in the data set on 9L/LacZ cells [4], the “Percent Uptake LacZ Cells” value worked out at 71%.
Regarding AAVALLPAVLLALLAPRKKRRQRRRPPQC [PN27], in the data set with 9L/LacZ cells [4], the “Percent Uptake LacZ Cells” value was 86%. The “Percent Uptake Primary MTF Cells” value in data set [5] is 61%.
On to “NH2-RKKRRQRRRPPQCAAVALLPAVLLALLAP-amide (H-RKKRRQRRRPPQCAAVALLPAVLLALLAP-NH2) [PN28]”, for which the “Percent Uptake LacZ Cells” value in the data set on 9L/LacZ cells [4] is 79%. The “Percent Uptake Primary MTF Cells” value in data set [5] stood at 81%.
